For the data set the following is noted: buffer; pH 7.4; 6.0 h; 150.0 µM.

Consider 84 molecules from PubChem BioAssay AID1645848.

Values after ≈ are worked out from the molar mass of the structure shown. A value given as a limit tells only on which side of the number the result lay.

As usually defined, the kinetic solubility is solubility judged after dilution from a stock solution rather than from solid. For `O=C(Nc1nc(-c2ccccc2)cs1)c1ccncc1NS(=O)(=O)c1ccc(-c2ccccc2)cc1`, the kinetic solubility is under 1 µg/mL.

With `Cc1ccc(S(=O)(=O)N2CCCc3cc(NS(=O)(=O)c4ccccc4)ccc32)cc1`, the kinetic solubility was under 1 µg/mL.

For the molecule `COc1cccc(CNC(=O)CCCn2nc(C)c3c(C)n(-c4ccc(C)cc4)nc3c2=O)c1OC`, the solubility (kinetic) worked out at 2.58 µg/mL (≈ 5.26 µM).

In turn, `O=C1CCCC2=C1C1(CCCC1)N=C(Nc1nc3ccccc3o1)N2` yielded a solubility (kinetic) of under 1 µg/mL.

`COc1ccc(C2=Nn3c([n+](C)c4ccccc43)SC2)cc1.[Br-]` gave a kinetic solubility of over 46 µg/mL.

Turning to `O=C(Nc1nc(-c2ccccc2)cs1)c1ccncc1NS(=O)(=O)c1ccccc1Cl`, the kinetic solubility was 20 µg/mL (≈ 42.4 µM).

In turn, `Cc1cc(SCc2sc(-c3ccc(C(F)(F)F)c(F)c3)nc2C)ccc1OCC(=O)O` had a kinetic solubility of over 70 µg/mL.

In turn, `COc1cc2c(C(=O)N3CCN(c4cccc(C(F)(F)F)c4)CC3)cn(CC(C)C)c(=O)c2cc1OC` came in with a kinetic solubility of 4.92 µg/mL (≈ 9.5 µM).

`COc1ccc(C)cc1NC(=O)c1cnc(-c2ccc(F)cc2)nc1-c1ccncc1`: the solubility (kinetic) was under 1 µg/mL.

For `CCN(CC)S(=O)(=O)c1ccc(N2CCOCC2)c(NC(=O)c2[nH]c(C)c(C(C)=O)c2C)c1`, the kinetic solubility is 3.85 µg/mL (≈ 8.08 µM).

Turning to `O=C(c1ccc2ncccc2c1)N1CCc2c(nc3cc[nH]n3c2=O)C1`, the kinetic solubility turned out to be 11.2 µg/mL (≈ 32.3 µM).

In turn, `COc1ccc(-c2nc(Nc3ccc(F)c(F)c3)c3ccccc3n2)cc1` displayed a kinetic solubility of under 1 µg/mL.

`COc1ccc(OC)c(-c2nnc3n2N=C(c2c(OC)cccc2OC)CS3)c1` displayed a solubility (kinetic) of 2.63 µg/mL (≈ 6.37 µM).

Take `O=S(=O)(Nc1ccc(S(=O)(=O)Nc2nccs2)cc1)c1ccc2ccccc2c1`: the solubility (kinetic) was found to be 33.2 µg/mL (≈ 74.6 µM).

In turn, `Nc1nc(N)c2c(OCC3CCN(Cc4ccccc4F)CC3)cccc2n1` showed a solubility (kinetic) of over 56 µg/mL.

In the case of `Oc1ccc(CNc2ccccc2F)c2cccnc12`, the kinetic solubility came to 4.4 µg/mL (≈ 16.4 µM).

Regarding `COc1ccc(Nc2nnc(-c3ccc(C)c(S(=O)(=O)NCc4nc5ccccc5[nH]4)c3)c3ccccc23)cc1`, the kinetic solubility is under 1 µg/mL.

`c1cc(OCCN2CCCCC2)cc(-c2n[nH]c3ccc(-c4ncn[nH]4)cc23)c1` registered a kinetic solubility of over 38 µg/mL.

The molecule `Cc1ccc(N2CCC(CNc3nc(-c4ccccc4C(C)C)ncc3C)CC2)cn1` showed a solubility (kinetic) of 19.8 µg/mL (≈ 47.7 µM).

Take `Cc1ccc(S(=O)(=O)Nc2ncccc2C(=O)Nc2nc(-c3ccccc3)cs2)cc1`: the kinetic solubility was under 1 µg/mL.

Molecule `FC(F)(F)c1ccccc1-c1nc(NCc2cccs2)c2ccccc2n1` gave a solubility (kinetic) of under 1 µg/mL.

`CCOc1cc2ncc(C#N)c(Nc3ccc(OCc4ccccn4)c(Cl)c3)c2cc1NC(=O)/C=C/CN(C)C` returned a kinetic solubility of under 1 µg/mL.

For `Cc1cc(C)c(C(=O)Nc2cccc([S+](=O)([O-])Nc3ccc(Br)cc3)c2)[nH]1`, the kinetic solubility was under 1 µg/mL.

For `Cc1nc([C@](C)(O)CO)sc1-c1cnc(N)c(O[C@H](C)c2cc(F)ccc2-n2nccn2)c1`, the kinetic solubility is 37.3 µg/mL (≈ 79.2 µM).

Regarding `O=C(CCCN1CCC2(CC1)C(=O)N(Cc1cccc(F)c1)CN2c1ccccc1)c1ccc(F)cc1`, the solubility (kinetic) is 4.23 µg/mL (≈ 8.41 µM).

On to `COc1ccc(NC(=O)c2ccccc2)cc1S(=O)(=O)Nc1ccc(Br)cc1`, for which the kinetic solubility is under 1 µg/mL.

Regarding `Cc1ccc(OCCn2c(CCNC(=O)C3CCCCC3)nc3ccccc32)cc1`, the solubility (kinetic) was under 1 µg/mL.

Turning to `CC(C)c1ccc(OCc2nc3c(n2Cc2ccccc2)C(=O)N(CC2CCOCC2)CCN3)cc1`, the kinetic solubility was under 1 µg/mL.

`CCOC(=O)N1CCN(Cc2nc3c(c(=O)n(C)c(=O)n3C)n2Cc2ccc(F)cc2)CC1` came in with a kinetic solubility of over 68 µg/mL.

Regarding `CN1CCN(C(c2ccccc2)c2ccccc2)CC1`, the solubility (kinetic) was over 39 µg/mL.

`CCOc1ccc(C(C)CNC(=O)c2cc3sccc3n2Cc2ccccc2)cc1OCC` (centres undefined) returned a kinetic solubility of under 1 µg/mL.

Molecule `Cc1nc2sccn2c(=O)c1S(=O)(=O)Nc1ccc(N2CCN(C)CC2)cc1` displayed a kinetic solubility of over 62 µg/mL.

Consider `Cc1ccc(S(=O)(=O)Nc2cnccc2C(=O)Nc2nc(-c3ccc(Cl)cc3)cs2)cc1`, for which the solubility (kinetic) is under 1 µg/mL.

With `COc1cccc(CNc2ccc(S(=O)(=O)Nc3cccc4ccccc34)cc2)c1O`, the kinetic solubility is under 1 µg/mL.

`O=C(O)CCC(=O)Nc1nc(-c2ccccc2)cs1` displayed a kinetic solubility of over 41 µg/mL.

Turning to `CCOc1ccc(CCNC(=O)c2cc3sccc3n2Cc2ccncc2)cc1OCC`, the kinetic solubility was 4.18 µg/mL (≈ 9.31 µM).

In the case of `Cc1ccc(S(=O)(=O)Nc2ccccc2C(=O)Nc2nccs2)cc1`, the solubility (kinetic) was 7.17 µg/mL (≈ 19.2 µM).

`CCNC(=O)N1CCCN(c2ccc(C(=O)NCCc3ccc(Cl)cc3Cl)cc2NC(=O)c2cccc(Cl)c2)CC1` came in with a kinetic solubility of under 1 µg/mL.

Consider `CC[C@H]1NC(=O)[C@@H](NC(=O)c2ncccc2O)[C@@H](C)OC(=O)[C@H](c2ccccc2)NC(=O)[C@@H]2CC(=O)CCN2C(=O)[C@H](Cc2ccccc2)N(C)C(=O)[C@@H]2CCCN2C1=O`, for which the kinetic solubility was over 100 µg/mL.

As to `Fc1ccc(F)c(Nc2nc(-c3ccncc3)nc3ccccc23)c1`, the solubility (kinetic) is under 1 µg/mL.

Molecule `CCCc1ccc(NC(=O)c2ccc3c(c2)NC(=O)CS3)cc1` gave a kinetic solubility of under 1 µg/mL.

On to `COc1ccc(CCNC(=O)c2cc3c(=O)n4ccccc4nc3n(CCCN3CCOCC3)c2=N)cc1`, for which the kinetic solubility was over 76 µg/mL.

Take `CC[C@@]1(O)C(=O)OCc2c1cc1n(c2=O)Cc2c-1nc1ccccc1c2CCNC(C)C`: the solubility (kinetic) was over 6 µg/mL.

`O=C(NC1CCCc2c1[nH]c1ccc(Cl)cc21)c1ccncc1` (centres undefined) registered a kinetic solubility of under 1 µg/mL.

The molecule `Cc1ccccc1C(=O)N1CCc2cc(-c3nc(NC(=O)Cc4ccc5ccccc5c4)sc3C)ccc21` had a kinetic solubility of under 1 µg/mL.

Turning to `COc1ccccc1Nc1ccnc(N2CCN(C(=O)c3ccccc3Cl)CC2)n1`, the kinetic solubility worked out at 1.59 µg/mL (≈ 3.75 µM).

`CC(C)(C)c1ccc(-c2nc(SCCCOc3ccccc3)n3[nH]c(=O)cc3n2)cc1`: the solubility (kinetic) is under 1 µg/mL.

In the case of `FC(F)(F)Oc1cccc(Nc2nc(-c3ccncc3)nc3ccccc23)c1`, the solubility (kinetic) was under 1 µg/mL.

Turning to `COc1ccc2oc(NC3=NC(c4[nH]ncc4Cl)C4=C(CCCC4=O)N3)nc2c1` (centres undefined), the solubility (kinetic) came out at 11.2 µg/mL (≈ 27.2 µM).

`CC(C)c1ccccc1-c1ncc(F)c(NCC2CCN(c3cnccn3)C2)n1` (centres undefined) had a solubility (kinetic) of 32.1 µg/mL (≈ 81.7 µM).

For `Cc1ccc(S(=O)(=O)Nc2ccc(Br)cc2C(=O)Nc2nc(-c3ccccc3)cs2)cc1`, the solubility (kinetic) was under 1 µg/mL.

For `CC1=C[C@@H](CNCc2cccnc2)[C@H](C(C)C)C[C@H]1Cc1nnc(-c2ccc([N+](=O)[O-])cc2)o1`, the kinetic solubility was over 68 µg/mL.

The molecule `Cc1cccc(S(=O)(=O)c2cn(Cc3ccccc3)c3cc(N4CCCC(C)C4)c(F)cc3c2=O)c1` (centres undefined) registered a kinetic solubility of under 1 µg/mL.

Turning to `Oc1c(C(Nc2nccs2)c2ccc(C(F)(F)F)cc2)ccc2cccnc12` (centres undefined), the solubility (kinetic) was under 1 µg/mL.

Take `CCn1c(=O)cc(OCC(=O)N2CCN(c3cccc(Cl)c3)CC2)c2ccccc21`: the kinetic solubility stood at 2.64 µg/mL (≈ 6.2 µM).

Molecule `C[C@H]1CN(C(=O)Nc2ccc(F)cc2F)C[C@@H]1c1nc(-c2ccccc2)no1` yielded a kinetic solubility of 19.3 µg/mL (≈ 50.3 µM).

Consider `COc1ccc(NC(=O)c2c(C)cccc2C)cc1S(=O)(=O)Nc1ccc(Br)cc1`, for which the kinetic solubility was under 1 µg/mL.

The molecule `Nc1cc(-c2nc(Nc3ccc(F)c(F)c3)c3ccccc3n2)ccn1` showed a kinetic solubility of under 1 µg/mL.

On to `CN(C)c1cccc(-c2nc(N3CCC(C(N)=O)CC3)ncc2F)c1`, for which the kinetic solubility worked out at 42.6 µg/mL (≈ 124 µM).

The molecule `CC1=C[C@@H](CN2C(=O)C(C)=C(C)C2=O)[C@H](C(C)C)C[C@H]1Cc1nc2c(C)cccc2[nH]1` showed a solubility (kinetic) of 3.65 µg/mL (≈ 8.7 µM).

`CC(Nc1ccc([S+](=O)([O-])Nc2nccs2)cc1)c1ccccc1` (centres undefined): the kinetic solubility was found to be 4.76 µg/mL (≈ 13.3 µM).

For `CCCc1nnc(NC(=O)c2nc(S(=O)(=O)Cc3ccc(C)cc3)ncc2Cl)s1`, the kinetic solubility is over 67 µg/mL.

As to `CC[C@@]1(O)C(=O)OCc2c1cc1n(c2=O)Cc2c-1nc1cc(F)c(C)c3c1c2[C@@H](N)CC3`, the kinetic solubility worked out at 31.9 µg/mL (≈ 73.3 µM).

Molecule `Cc1cc(NC(=S)N2CCN(c3cccc(C(F)(F)F)c3)CC2)nc2ccccc12` gave a kinetic solubility of 4.33 µg/mL (≈ 10.1 µM).

`COc1ccc2c(c1)CN(C(=O)CCN1CCC(Cc3ccccc3)CC1)CCS2`: the solubility (kinetic) is over 63 µg/mL.

`CC(C)(C)c1ccc(OCc2nn3c(-c4ccncc4)nnc3s2)cc1` yielded a solubility (kinetic) of under 1 µg/mL.

In the case of `O=C(Nc1nc(-c2ccc(Cl)s2)cs1)c1cccs1`, the solubility (kinetic) is under 1 µg/mL.

In turn, `Cc1cc(NS(=O)(=O)c2ccc(NC(=O)Cc3ccc(F)c(Cl)c3)cc2)no1` returned a solubility (kinetic) of over 63 µg/mL.

For `CCN1CCN(C(=O)c2cc(-c3ccc(F)cc3)c3nncn3n2)CC1`, the solubility (kinetic) is over 52 µg/mL.

With `Cc1ccc(C(=O)[C@H]2CC[C@@H](C(=O)Nc3ccc(S(=O)(=O)Nc4nccs4)cc3)C2)cc1C`, the kinetic solubility amounted to 2.28 µg/mL (≈ 4.72 µM).

The molecule `CCOc1ccc(CCNC(=O)c2cc3sccc3n2C(C)C)cc1OCC` showed a kinetic solubility of 1.62 µg/mL (≈ 4.05 µM).

Molecule `Cc1ccc(-c2cc(C(=O)NCc3cnn(C)c3)c3cc(Br)ccc3n2)cc1` came in with a kinetic solubility of under 1 µg/mL.

Molecule `Cc1noc(C)c1-c1ccc(-c2cc(C(N)=O)c(NC(N)=O)s2)c(O[C@H]2CCNC2)c1` registered a solubility (kinetic) of 38.5 µg/mL (≈ 87.3 µM).

Consider `Cc1c(-c2nsc(NC(=O)c3cccc(Cl)c3)n2)nnn1-c1ccccc1C(F)(F)F`, for which the kinetic solubility is under 1 µg/mL.

`Oc1ccc(CNc2ccccc2Br)c2cccnc12` displayed a solubility (kinetic) of 8.3 µg/mL (≈ 25.2 µM).

With `NC(=O)C1CCN(c2nc(-c3cccc4sc5ccccc5c34)cs2)CC1`, the kinetic solubility is under 1 µg/mL.

In turn, `CCOC(=O)C1=C(C)NC(=O)CC1C(=O)Nc1cc(Cl)cc(Cl)c1` (centres undefined) gave a kinetic solubility of 22.4 µg/mL (≈ 60.2 µM).

Regarding `COc1cccc(CNc2ccc(S(=O)(=O)Nc3cnc4ccccc4c3)cc2)c1O`, the solubility (kinetic) is under 1 µg/mL.

In turn, `COc1ccc(C[C@@H]2C(=O)N[C@H](C)C(=O)N(C)[C@@H]3C(=O)N(C)[C@@H](Cc4ccc(O)c(c4)Oc4ccc(cc4)[C@H]3O)C(=O)N[C@@H](C)C(=O)N[C@H](C)C(=O)N2C)cc1` yielded a solubility (kinetic) of 96.4 µg/mL (≈ 125 µM).

As to `COc1ccc(NC(=O)c2c(C)cccc2C)cc1[S+](=O)([O-])N1CCCCCC1`, the solubility (kinetic) was determined as 15.8 µg/mL (≈ 37.9 µM).

The molecule `CC(C)(C)C(=O)N1CCN(c2nccc(Nc3ccccc3Cl)n2)CC1` displayed a solubility (kinetic) of 26.3 µg/mL (≈ 70.3 µM).

`COc1ccc(NC2=C(c3ccc(C(F)(F)F)cc3)C(=O)c3ccccc32)cc1` returned a kinetic solubility of 1.04 µg/mL (≈ 2.64 µM).

Molecule `Fc1ccc(Nc2nc(-c3ccncc3)nc3ccccc23)cc1F` displayed a kinetic solubility of under 1 µg/mL.

Consider `COc1cc(Cl)c(C)cc1Nc1c2c(nc3ccccc13)CCC2`, for which the solubility (kinetic) stood at 3.79 µg/mL (≈ 11.2 µM).
